Data reported in PMC8116641 (Archives of Virology, 2021).

Test system: influenza A virus A/Aichi/2/68 (H3N2) (Aichi (H3N2))
Assay: microbe, parasite or virus in culture
Format: cell-based
Conditions: Influenza A virus, H3N2, MDCK, read-out: IC50 (50% inhibitory concentration)

CC1(C)[C@H]2CC[C@]1(C)[C@H](OC(=O)C[N+](C)(C)C)C2.[I-] [10a, N,N,N-Trimethyl-2-oxo-2-((1S,2R,4S)-1,7,7-trimethylbicyclo[2.2.1]heptan-2-yloxy)ethanaminium iodide]
IC50: 16.8 µM
